Experimental data from ChEMBL document CHEMBL5620385, “Orally bioavailable styryl derivative of rohitukine-N-oxide inhibits CDK9/T1 and the growth of pancreatic cancer cells” (Eur J Med Chem, 2023).

Key:
[1] = tested on: MIA PaCa-2; experiment: Antiproliferative activity against human MIA PaCa-2 cells assessed as cell growth inhibition at 10 uM incubated for 48 hrs by MTT assay relative to control; format: functional
[2] = tested on: HCT-116; experiment: Antiproliferative activity against human HCT-116 cells assessed as cell growth inhibition incubated for 48 hrs by MTT assay; format: functional
[3] = molecular target: Cyclin-dependent kinase 7/ cyclin H (Homo sapiens, UniProt P50613); experiment: Inhibition of CDK7/cyclin H (unknown origin) by ADP-Glo assay; format: protein-complex assay
Chain of Cyclin-dependent kinase 7/ cyclin H (P51946 whole entry): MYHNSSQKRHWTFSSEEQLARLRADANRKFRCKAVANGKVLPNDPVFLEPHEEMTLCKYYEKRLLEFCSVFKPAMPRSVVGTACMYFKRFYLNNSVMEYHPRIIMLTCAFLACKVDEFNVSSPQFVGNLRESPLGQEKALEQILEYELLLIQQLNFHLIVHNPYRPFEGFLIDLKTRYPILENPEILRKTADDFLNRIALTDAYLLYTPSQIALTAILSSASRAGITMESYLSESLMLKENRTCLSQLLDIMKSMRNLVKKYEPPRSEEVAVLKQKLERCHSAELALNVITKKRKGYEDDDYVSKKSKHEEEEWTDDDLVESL
Chain of Cyclin-dependent kinase 7/ cyclin H (P50613 whole entry): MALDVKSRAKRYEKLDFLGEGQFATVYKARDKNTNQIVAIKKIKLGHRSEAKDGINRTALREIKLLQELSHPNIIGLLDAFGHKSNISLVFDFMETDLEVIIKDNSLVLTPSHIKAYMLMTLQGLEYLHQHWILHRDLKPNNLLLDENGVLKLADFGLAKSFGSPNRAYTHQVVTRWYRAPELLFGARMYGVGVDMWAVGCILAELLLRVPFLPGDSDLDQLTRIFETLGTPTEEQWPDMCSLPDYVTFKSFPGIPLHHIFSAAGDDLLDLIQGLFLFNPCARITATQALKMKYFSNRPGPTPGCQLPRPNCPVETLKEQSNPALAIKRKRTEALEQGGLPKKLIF

[4] = tested on: MIA PaCa-2; experiment: Antiproliferative activity against human MIA PaCa-2 cells assessed as cell growth inhibition incubated for 48 hrs by MTT assay; format: functional
[5] = tested on: HCT-116; experiment: Antiproliferative activity against human HCT-116 cells assessed as cell growth inhibition at 10 uM incubated for 48 hrs by MTT assay relative to control; format: functional
[6] = Antiproliferative activity against HEK293 cells assessed as cell growth inhibition incubated for 48 hrs by MTT assay; format: toxicity, cell-based; details: human
[7] = molecular target: CDK9/cyclin T1 (Homo sapiens, UniProt P50750); experiment: Inhibition of CDK9/cyclin T1 (unknown origin) by ADP-Glo assay; format: protein-complex assay
Chain of CDK9/cyclin T1 (O60563 whole entry): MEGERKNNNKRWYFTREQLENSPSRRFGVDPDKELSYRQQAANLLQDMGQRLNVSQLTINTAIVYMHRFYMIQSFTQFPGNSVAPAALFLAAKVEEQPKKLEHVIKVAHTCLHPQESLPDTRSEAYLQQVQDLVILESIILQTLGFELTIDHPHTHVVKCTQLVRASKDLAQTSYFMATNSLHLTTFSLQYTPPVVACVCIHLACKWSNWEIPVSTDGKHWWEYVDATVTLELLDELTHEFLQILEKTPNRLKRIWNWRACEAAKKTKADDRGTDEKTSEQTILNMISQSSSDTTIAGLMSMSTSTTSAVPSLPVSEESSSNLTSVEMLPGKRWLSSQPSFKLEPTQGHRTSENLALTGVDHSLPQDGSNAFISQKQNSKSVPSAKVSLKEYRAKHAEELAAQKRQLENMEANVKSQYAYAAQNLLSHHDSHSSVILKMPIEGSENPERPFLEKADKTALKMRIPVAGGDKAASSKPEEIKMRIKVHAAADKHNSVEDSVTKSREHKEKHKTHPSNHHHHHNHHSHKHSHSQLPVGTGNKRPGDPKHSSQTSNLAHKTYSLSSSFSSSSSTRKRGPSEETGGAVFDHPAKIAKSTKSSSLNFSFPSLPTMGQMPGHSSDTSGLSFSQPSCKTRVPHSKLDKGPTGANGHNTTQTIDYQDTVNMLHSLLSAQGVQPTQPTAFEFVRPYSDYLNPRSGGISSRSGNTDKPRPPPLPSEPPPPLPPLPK
Chain of CDK9/cyclin T1 (P50750 whole entry): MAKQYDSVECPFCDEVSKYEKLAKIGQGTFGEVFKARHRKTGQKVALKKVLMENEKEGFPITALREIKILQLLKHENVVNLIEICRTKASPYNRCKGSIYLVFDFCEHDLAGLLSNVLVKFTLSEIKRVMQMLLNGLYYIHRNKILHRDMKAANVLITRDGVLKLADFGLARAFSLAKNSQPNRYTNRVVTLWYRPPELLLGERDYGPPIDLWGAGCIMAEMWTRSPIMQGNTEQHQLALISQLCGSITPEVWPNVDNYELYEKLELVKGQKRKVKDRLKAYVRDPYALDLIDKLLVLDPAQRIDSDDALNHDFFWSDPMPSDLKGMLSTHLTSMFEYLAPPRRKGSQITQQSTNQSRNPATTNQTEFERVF

[8] = molecular target: Cyclin-dependent kinase 7/ cyclin H (Homo sapiens) (UniProt P51946+P50613); experiment: Inhibition of CDK7/cyclin H (unknown origin) at 10 uM by ADP-Glo assay relative to control; format: protein-complex assay
[9] = molecular target: CDK9/Cyclin K (Homo sapiens) (UniProt P50750+O75909); experiment: Inhibition of CDK9/cyclin K (unknown origin) at 10 uM by ADP-Glo assay relative to control; format: protein-complex assay
[10] = molecular target: CDK9/Cyclin K (Homo sapiens, UniProt P50750); experiment: Inhibition of CDK9/cyclin K (unknown origin) by ADP-Glo assay; format: protein-complex assay
Chain of CDK9/Cyclin K (P50750 whole entry): as above
Chain of CDK9/Cyclin K (O75909 whole entry, further chain): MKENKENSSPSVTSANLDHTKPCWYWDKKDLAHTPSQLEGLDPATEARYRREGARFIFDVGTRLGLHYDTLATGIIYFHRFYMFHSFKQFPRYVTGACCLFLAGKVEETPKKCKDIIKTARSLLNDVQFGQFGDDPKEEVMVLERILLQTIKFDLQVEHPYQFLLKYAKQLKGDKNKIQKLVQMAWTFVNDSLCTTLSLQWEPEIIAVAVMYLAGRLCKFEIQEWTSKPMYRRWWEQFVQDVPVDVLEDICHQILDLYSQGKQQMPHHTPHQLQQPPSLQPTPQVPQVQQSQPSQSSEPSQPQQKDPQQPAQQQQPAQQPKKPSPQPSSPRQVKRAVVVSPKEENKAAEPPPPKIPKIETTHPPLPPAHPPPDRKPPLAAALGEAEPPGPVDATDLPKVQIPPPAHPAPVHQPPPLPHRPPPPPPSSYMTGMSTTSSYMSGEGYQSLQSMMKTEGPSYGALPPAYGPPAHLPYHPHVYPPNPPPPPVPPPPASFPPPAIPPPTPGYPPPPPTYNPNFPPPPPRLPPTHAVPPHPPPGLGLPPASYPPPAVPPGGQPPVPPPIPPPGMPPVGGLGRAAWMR

[11] = Antiproliferative activity against HEK293 cells assessed as cell growth inhibition at 10 uM incubated for 48 hrs by MTT assay relative to control; format: toxicity, cell-based; details: human
[12] = Half life in BALB/c mouse at 30 mg/kg, po measured for 6 hrs by LC-MS/MS analysis; format: ADME, organism-based; details: in vivo
[13] = AUC(0 to infinity) in BALB/c mouse at 30 mg/kg, po measured for 6 hrs by LC-MS/MS analysis; format: ADME, organism-based; details: in vivo
[14] = Clearance in BALB/c mouse at 30 mg/kg, po measured for 6 hrs by LC-MS/MS analysis; format: ADME, organism-based; details: in vivo
[15] = AUC(0 to t) in BALB/c mouse at 2.5 mg/kg, iv measured for 6 hrs by LC-MS/MS analysis; format: ADME, organism-based; details: in vivo
[16] = tested on: MIA PaCa-2; experiment: Induction of intracellular ROS generation in human MIA PaCa-2 cells incubated for 48 hrs by DCFDA dye based analysis; format: functional, cell-based
[17] = Clearance in BALB/c mouse at 2.5 mg/kg, iv measured for 6 hrs by LC-MS/MS analysis; format: ADME, organism-based; details: in vivo
[18] = Tmax in BALB/c mouse at 30 mg/kg, po measured for 6 hrs by LC-MS/MS analysis; format: ADME, organism-based; details: in vivo
[19] = AUC(0 to t) in BALB/c mouse at 30 mg/kg, po measured for 6 hrs by LC-MS/MS analysis; format: ADME, organism-based; details: in vivo
[20] = AUC(0 to infinity) in BALB/c mouse at 2.5 mg/kg, iv measured for 6 hrs by LC-MS/MS analysis; format: ADME, organism-based; details: in vivo
[21] = tested on: MIA PaCa-2; experiment: Induction of apoptosis in human MIA PaCa-2 cells assessed as chromatin condensation incubated for 48 hrs by DAPI staining based analysis; format: functional, cell-based
[22] = tested on: MIA PaCa-2; experiment: Induction of mitochondrial membrane potential loss in human MIA PaCa-2 cells incubated for 48 hrs by Rhodamine-123 dye based analysis; format: functional, cell-based
[23] = Volume of distribution in BALB/c mouse at 30 mg/kg, po measured for 6 hrs by LC-MS/MS analysis; format: ADME, organism-based; details: in vivo
[24] = Metabolic stability in human liver microsomes assessed as compound remaining at 10 uM measured after 30 mins in presence of NADPH by HPLC analysis; format: ADME, Microsome; details: 0.5 h
[25] = Cmax in BALB/c mouse at 30 mg/kg, po measured for 6 hrs by LC-MS/MS analysis; format: ADME, organism-based; details: in vivo
[26] = Volume of distribution in BALB/c mouse at 2.5 mg/kg, iv measured for 6 hrs by LC-MS/MS analysis; format: ADME, organism-based; details: in vivo
[27] = tested on: MIA PaCa-2; experiment: Induction of apoptosis in human MIA PaCa-2 cells assessed as apoptotic body formation incubated for 48 hrs by DAPI staining based analysis; format: functional, cell-based
[28] = Half life in BALB/c mouse at 2.5 mg/kg, iv measured for 6 hrs by LC-MS/MS analysis; format: ADME, organism-based; details: in vivo
[29] = C0 in BALB/c mouse at 2.5 mg/kg, iv measured for 6 hrs by LC-MS/MS analysis; format: ADME, organism-based; details: in vivo
[30] = Metabolic stability in mouse liver microsomes assessed as compound remaining at 10 uM measured after 30 mins in presence of NADPH by HPLC analysis; format: ADME, Microsome; details: 0.5 h

Row | SMILES | inhibition at 10 µM [1] [%] | GI50 [2] [µM] | IC50 [3] [µM] | GI50 [4] [µM] | inhibition at 10 µM [5] [%] | GI50 at 48 h [6] [µM] | IC50 [7] [µM] | inhibition [8] [%] | inhibition [9] [%] | IC50 [10] [µM] | inhibition at 48 h, 10 µM [11] [%] | also measured
1 | C[N+]1([O-])CC[C@H](c2c(O)cc(O)c3c(=O)cc(/C=C/c4ccccc4Br)oc23)[C@H](O)C1 (stereo partly drawn) | 70.3 | 9.32 | 1.62 | 5.35 | 36.3 | 95.2 | 0.231 | 49.4 | 60.2 | 2.41 | 17.2 | –
2 | COc1cc(O)c2c(=O)cc(/C=C/c3c(F)ccc(F)c3Cl)oc2c1[C@H]1CC[N+](C)([O-])C[C@H]1O (stereo partly drawn) | 36.4 | – | – | – | 57.7 | – | – | 51.4 | 41.8 | – | 20 | –
3 | C[N+]1([O-])CC[C@H](c2c(O)cc(O)c3c(=O)cc(/C=C/c4ccccc4F)oc23)[C@H](O)C1 (stereo partly drawn) | 31.8 | > 10 | > 10 | 5.58 | 18.2 | > 100 | 0.676 | 15.9 | 58.9 | 8.47 | 18.8 | –
4 | C[N+]1([O-])CC[C@H](c2c(O)cc(O)c3c(=O)cc(/C=C/c4cccc(Cl)c4)oc23)[C@H](O)C1 (stereo partly drawn) | 36.3 | > 10 | > 10 | > 10 | 27.4 | > 100 | 3.71 | 19.4 | 37.3 | > 10 | 9.2 | –
5 | C[N+]1([O-])CC[C@H](c2c(O)cc(O)c3c(=O)cc(/C=C/c4ccccc4)oc23)[C@H](O)C1 (stereo partly drawn) | 21.5 | > 10 | > 10 | > 10 | 20.5 | > 100 | 1.99 | 41.7 | 44.2 | > 10 | 8.2 | –
6 | C[N+]1([O-])CC[C@H](c2c(O)cc(O)c3c(=O)cc(/C=C/c4cc(Cl)cc(Cl)c4)oc23)[C@H](O)C1 (stereo partly drawn) | 11.3 | – | – | – | 5.7 | – | – | 25.6 | 28 | – | 14.8 | –
7 | C[N+]1([O-])CC[C@H](c2c(O)cc(O)c3c(=O)cc(/C=C/c4ccccc4Cl)oc23)[C@H](O)C1 (stereo partly drawn) | 56.3 | 5.1 | 1.46 | 6.07 | 67 | 90.3 | 0.166 | 62.7 | 61.7 | 2.81 | 29.7 | half-life [12]: 102 min; AUC(0-inf) [13]: 0.525 µg·h/mL; CL/F [14]: 57.2 L/h/kg; AUC(0-t) at 6 h [15]: 0.341 µg·h/mL; Activity [16]: Dose-Dependent Effect; clearance [17]: 7.2 L/h/kg; Tmax [18]: 4.98 min; AUC(0-t) at 6 h [19]: 0.51 µg·h/mL; AUC(0-inf) [20]: 0.346 µg·h/mL; Activity [21]: Dose-Dependent Effect; Activity [22]: Dose-Dependent Effect; Vd [23]: 32.4 L/kg; Stability [24]: Stable; Cmax [25]: 0.731 µg/mL; Vd [26]: 3 L/kg; Activity [27]: Dose-Dependent Effect; half-life [28]: 17.4 min; C0 at 6 h [29]: 5.72 µg/mL; Stability [30]: Stable
8 | Cc1cc(=O)c2c(O)cc(O)c([C@H]3CC[N+](C)([O-])C[C@H]3O)c2o1 (stereo partly drawn) | 18.8 | > 10 | > 10 | > 10 | 34 | > 100 | 7.65 | 12.8 | 37.9 | > 10 | 14.3 | –
9 | CN1CC[C@H](c2c(O)cc(O)c3c(=O)cc(/C=C/c4c(Cl)cccc4Cl)oc23)[C@H](O)C1 | 82.5 | 9.32 | – | 1.94 | 49.5 | > 100 | 0.003 | 81.6 | 83.6 | 0.32 | 20.6 | –
10 | COc1cc(O)c2c(=O)cc(/C=C/c3ccc(F)c(Cl)c3)oc2c1[C@H]1CC[N+](C)([O-])C[C@H]1O (stereo partly drawn) | 27.8 | – | – | – | 33.7 | – | – | 56.7 | 28.4 | – | 6.9 | –
11 | COc1cc(O)c2c(=O)cc(/C=C/c3c(F)ccc(Cl)c3F)oc2c1[C@H]1CC[N+](C)([O-])C[C@H]1OC (stereo partly drawn) | 39 | – | – | – | 38.1 | – | – | 50.3 | 17 | – | 15.5 | –
12 | C[N+]1([O-])CC[C@H](c2c(O)cc(O)c3c(=O)cc(/C=C/c4ccccc4I)oc23)[C@H](O)C1 (stereo partly drawn) | 38.1 | – | – | – | 38.3 | – | – | 89.6 | 64.8 | – | 13.4 | –
13 | C[N+]1([O-])CC[C@H](c2c(O)cc(O)c3c(=O)cc(/C=C/c4ccc(Cl)cc4Cl)oc23)[C@H](O)C1 (stereo partly drawn) | 41.2 | – | – | – | 54 | – | – | 49.6 | 43.2 | – | 18.2 | –
14 | C[N+]1([O-])CC[C@H](c2c(O)cc(O)c3c(=O)cc(/C=C/c4ccc(Cl)cc4Br)oc23)[C@H](O)C1 (stereo partly drawn) | 58.4 | – | – | – | 57.1 | – | – | 65.4 | 66.2 | – | 21.4 | –
15 | CC(=O)O[C@H]1C(=O)[C@@]2(C)[C@H]([C@H](OC(=O)c3ccccc3)[C@]3(O)C[C@H](OC(=O)[C@H](O)[C@@H](NC(=O)c4ccccc4)c4ccccc4)C(C)=C1C3(C)C)[C@]1(OC(C)=O)CO[C@@H]1C[C@@H]2O | – | – | – | – | – | – | – | – | – | – | – | Activity [21]: Dose-Dependent Effect; Activity [22]: Dose-Dependent Effect; Activity [27]: Dose-Dependent Effect
16 | C[N+]1([O-])CC[C@H](c2c(O)cc(O)c3c(=O)cc(/C=C/c4c(Cl)cccc4Cl)oc23)[C@H](O)C1 (stereo partly drawn) | 53.6 | 5.44 | 6.44 | 9.7 | 72.3 | > 100 | 0.399 | 47.5 | 65.8 | 3.44 | 24.1 | –
17 | C[N+]1([O-])CC[C@H](c2c(O)cc(O)c3c(=O)cc(/C=C/c4ccc(Cl)cc4)oc23)[C@H](O)C1 (stereo partly drawn) | 44.2 | > 10 | > 10 | > 10 | 39.3 | 46.3 | 3.85 | 18.2 | 35.8 | > 10 | 9.1 | –
18 | C[N+]1([O-])CC[C@H](c2c(O)cc(O)c3c(=O)cc(/C=C/c4c(F)cccc4Cl)oc23)[C@H](O)C1 (stereo partly drawn) | 56.1 | 4.56 | 5.14 | 7.05 | 61.7 | > 100 | 1.43 | 48.5 | – | – | 19.3 | –
19 | CCOc1cc(O)c2c(=O)cc(/C=C/c3c(F)cccc3Cl)oc2c1[C@H]1CC[N+](C)([O-])C[C@H]1O (stereo partly drawn) | 52.8 | > 10 | > 10 | 8.03 | 34.7 | > 100 | 0.45 | 37.4 | – | – | 22.8 | –
20 | COc1cc(O)c2c(=O)cc(/C=C/c3cccc(Cl)c3F)oc2c1[C@H]1CC[N+](C)([O-])C[C@H]1O (stereo partly drawn) | 52.7 | – | – | – | 62.1 | – | – | 47.5 | 59.6 | – | 17.2 | –
